What all share (format): functional, cell-based
In one test the test system is A549. The test is described as follows: Cytotoxicity against human A549 cells after 72 hrs by MTT assay. The note with it: A549, 72 h. For orientation: Tetrazolium assays rely on reduction of a dye to a coloured formazan, in cell work by metabolically active cells.
The nature of test [1]: Cytotoxicity against mouse B16-BL6 cells after 72 hrs by MTT assay. As to conditions: B16-BL6, 72 h.
The subject of the next test is HeLa. The test is described as follows: Cytotoxicity against human HeLa cells after 72 hrs by MTT assay.
Test [2] can be described thus: Cytotoxicity against mouse colon 26-L5 cells after 72 hrs by MTT assay.
In a further test the test system is HT-1080. In words: Cytotoxicity against human HT1080 cells after 72 hrs by MTT assay. As to conditions: HT-1080, 72 h.
The nature of test [3]: Cytotoxicity against mouse LLC cells after 72 hrs by MTT assay. As to conditions: Lewis lung carcinoma.

Each structure is given as a SMILES string. Where only a bound is given, the exact number is not on record here.

For the molecule `O=C1c2ccc(O)cc2O[C@H](c2ccc(O)cc2)[C@H]1O` [GARBANZOL], the IC50 (with A549; in test [1]; with HeLa; in test [2]; with HT-1080; in test [3]) was greater than 100 µM in each case.

`O=C(/C=C/c1ccc(O)cc1)c1ccc(O)cc1O` [ISOLIQUIRITIGENIN]: the IC50 in the test on A549 amounted to 98.9 µM; in test [1] it was 80.5 µM; in the test with HeLa, 82.6 µM; in test [2], 21.8 µM; in the test with HT-1080, 76.7 µM; in test [3] it was 84 µM.

In the case of `O=C1C[C@@H](c2ccc(O)cc2)Oc2cc(O)ccc21` [LIQUIRTIGENIN], the IC50 with A549 was greater than 100 µM; in test [1], 97.7 µM; in the test on HeLa it was greater than 100 µM; in test [2] it was 56.6 µM; with HT-1080, greater than 100 µM; in test [3] it was greater than 100 µM.

As to `COc1ccc([C@H]2COc3cc(O)ccc3C2)c(OC)c1O` [MUCRONULATOL], the IC50 in the test on A549 was found to be 9.9 µM; in test [1], 30.4 µM; with HeLa, 24.2 µM; in test [2], 7.3 µM; with HT-1080 it was 18.2 µM; in test [3], 8.4 µM.

Consider `O=C1C[C@@H](c2ccc(O)cc2)Oc2cc(O)cc(O)c21` [NARINGENIN], for which the IC50 (in the test on A549; in test [1]; in the test with HeLa; in test [2]; in the test on HT-1080; in test [3]) was greater than 100 µM in each case.

Regarding `COc1ccc(-c2coc3cc(O)cc(O)c3c2=O)cc1O` [PRATENSEIN], the concentration for half-maximal inhibition (IC50) (in the test with A549; in test [1]; in the test on HeLa; in test [2]; in the test on HT-1080; in test [3]) was greater than 100 µM each time.

As to `COc1cc2c(cc1OC)[C@@H]1COc3cc(O)ccc3[C@@H]1O2` [SECUNDIFLOROL I], the IC50 in the test on A549 is greater than 100 µM; in test [1], 64.9 µM; in the test on HeLa, 84.3 µM; in test [2], 44.5 µM; with HT-1080 it was greater than 100 µM; in test [3], greater than 100 µM.

On to `COc1cc([C@H]2OC[C@H]3[C@@H]2CO[C@@H]3c2cc(OC)c(O)c(OC)c2)cc(OC)c1O` [SYRINGARESINOL], for which the IC50 (with A549; in test [1]; in the test on HeLa; in test [2]; with HT-1080; in test [3]) was greater than 100 µM each time.

As for `COc1ccc(-c2coc3cc(O)ccc3c2=O)c(O)c1` [XENOGNOSIN B], the IC50 with A549 is greater than 100 µM; in test [1], 34.1 µM; in the test with HeLa, 69.8 µM; in test [2], 49.3 µM; with HT-1080, greater than 100 µM; in test [3], greater than 100 µM.

By IC50 is commonly meant the midpoint of a concentration-inhibition curve. A low value points to higher potency.

The record behind these values is ChEMBL document CHEMBL1150308, “Cytotoxic constituents from Brazilian red propolis and their structure-activity relationship” (Bioorg Med Chem, 2008).
